What was measured:
[1] = tested on: human brown adipocytes immortalized by transgenesis and expressing β3-adrenergic receptors; settings: Zilberfarb 1997; Jockers 1998; cited from earlier work
hMADS-2 cells [2] = assay: Stimulation of UCP1 expression by β-adrenergic agonists in hMADS-2 cells differentiated into brown adipocytes; assay type: cell-based, human; settings: stimulation for 6 h at 10-100 nM; cells with 100 nM rosiglitazone days 3 to 16
Protocol: A) adipocytic differentiation of hMADS-2 cells was carried out in the presence of 100 nM rosiglitazone on the days indicated and mRNA levels were determined on day 17 by quantitative RT-PCR. (B, C) differentiation was obtained in the presence of 100 nM rosiglitazone between days 3 and 16, in the absence or the presence during the 6 last hours of β-adrenergic agonists at the indicated concentrations. The results represent the mean±SD of 3 (A) and 2 (B) independent experiments carried out with various series of cells; they are expressed by taking as 100% the values obtained either during treatment between days 3 and 9 (A) or in the absence of β-adrenergic agonists (B, C).
(§1) RNA purification and analysis: RNA extraction, the use of reverse transcriptase and determination of mRNA levels by real-time quantitative RT-PCR have been described (Zaragosi, L. E et al., Stem Cells, 2006. 24(11): p. 2412-9; Elabd, C, et al., Biochem Biophys Res Commun, 2007. 361(2): p. 342-8; Bezy, O., et al., J Biol Chem, 2005. 280(12): p. 11432-8). Expression of the genes of interest was normalized compared with the one of the TBP gene and was quantified using the ΔCt comparative method. […]
Immunoblot analysis: Total cellular lysates are analyzed by immunoblot as previously described (Bezy, O., et al., J Biol Chem, 2005. 280(12): p. 11432-8). […]

hMADS-2 cells [3] = assay: Adipocytic differentiation of hMADS-2 cells (Oil Red O lipid staining, GPDH activity, PPARγ mRNA); assay type: cell-based, human
Description: (§2) Expression of the genes of interest was normalized compared with the one of the TBP gene and was quantified using the ΔCt comparative method. The sequences of oligonucleotide primers, obtained using the Primer Express Software (Perkin Elmer Life Sciences), are described in Table 1 below.

[4] = tested on: hMADS-2 cells differentiated into white adipocytes; assay: Induction of a brown phenotype in hMADS-2 cells previously differentiated into white adipocytes; assay type: cell-based, human; settings: for expression of the UCP1 protein: exposure between days 14 and 16 with specific PPAR ligands; for UCP1 gene expression: replacement of rosiglitazone, 10 μM, results not shown
Protocol: Initially hMADS-2 cells were differentiated into white adipocytes with 100 nM rosiglitazone present between days 3 and 9. Once eliminated, the ligand is added or not added on day 14 and during the following days at the indicated […] concentrations.
The results are expressed as stimulation factor by taking as 1 the values obtained on day 16 after exposure to 100 nM rosiglitazone between days 3 and 9; the values represent the mean±SD of 2 independent experiments carried out with various series of cells.
as §2
The primary antibodies obtained from the rabbit, anti-human UCP1 and anti-TBP, are products from Santa Cruz Biotechnology (Santa Cruz, Calif., USA) and the secondary antibodies (conjugated with horseradish peroxidase) are products from Promega (Charbonnières, France). The “Enhanced Chemiluminescence” system (Millipore, Saint-Quentin-Yvelines, France) was used for detection.

hMADS-2 cells [5] = assay: Oxygen consumption and respiratory uncoupling of hMADS-2 cells (respirometer); assay type: cell-based, human
Protocol: On day 20, oxygen consumption (A), decoupling of oxidative phosphorylation (B) and stimulation of oxygen consumption by isoprenaline (C) were measured according to the protocol described in “Materials and Methods”. […] Determination of oxygen consumption: Oxygen consumption was measured using two-chamber injection respirometer equipped with a Peltier thermostat, Clark electrodes and integrated magnetic stirrers (Oroboros, Innsbruck, Austria). Measurements were made at 37° C. with constant stirring in a volume of 2 ml of DMEM/F12 medium (1:1, v/v) containing 10% fetal calf serum. Before each measurement, the medium present in the chambers was equilibrated with air for 30 min, and then the freshly-trypsinized cells were transferred to this medium. […] The respiratory chain was blocked with 1 μg/ml antimycin A. Oxygen consumption was calculated using the DataGraph software (Oroboros Software). Basal respiratory activity corresponds to oxygen consumption sensitive to antimycin A. Respiratory activity was stimulated in the presence of 1 μM isoprenaline added extemporaneously in the injection chamber, with measurements made as described above.

hMADS-2 cells [6] = assay: Expression of brown adipocyte markers and related genes in hMADS-2 cells (quantitative RT-PCR, immunoblot); assay type: cell-based, human; settings: brown phenotype; ratio 1 for the white phenotype (days 3 to 9)
Protocol: Differentiation of hMADS-2 cells was carried out as described in FIG. 1. On day 16, levels of UCP1 (A), UCP2 (C), CIDEA (D) and CPT1B (E) mRNA were determined by quantitative RT-PCR. The results represent the mean±SD of 3 independent experiments carried out with various series of cells; they are expressed by taking as 100% the value obtained in the presence of 500 nM rosiglitazone. Levels of the UCP1 protein (B) were determined by immunoblotting on 2 different series of cells using TBP as endogenous internal standard.
Adipocytic differentiation of hMADS-2 cells was carried out in the presence of either rosiglitazone at 100 nM (A) or at the indicated concentrations (B). Levels of PRDM16, PGC-1α, PGC-1β and PPARα mRNA were determined by quantitative RT-PCR on day 16 (A) and day 17 (B). […]
Adipocytic differentiation of hMADS-2 cells was carried out in the presence of 100 nM rosiglitazone. On day 16, Bcl-2 and Bax mRNA levels were determined by quantitative RT-PCR. […]
as §1, with “11432-8).” for “11432-8). Expression of the genes of interest was normalized compared with the one of the TBP gene and was quantified using the ΔCt comparative method.”

[7] = 100 nM, days 3 to 20 (brown) versus days 3 to 9 (white)

CC(C)(C)NCC(O)COc1cccc2[nH]c(=O)[nH]c12 (stereo not shown) [CGP12177A]
lipolytic activity [1]: only weak lipolytic activity

C[C@H](Cc1ccc2c(c1)OC(C(=O)[O-])(C(=O)[O-])O2)NC[C@H](O)c1cccc(Cl)c1.[Na+].[Na+] [CL316243]
expression of UCP1 mRNA and UCP1 protein (hMADS-2 cells [2]): significantly increased

O=C(Nc1ccccc1)c1cc([N+](=O)[O-])ccc1Cl [GW 9662]
differentiation of hMADS cells into adipocytes (hMADS-2 cells [3]; PPARγ antagonist added to the differentiation medium): prevents
expression of the UCP-1 gene ([4]; PPARγ antagonist added, cells differentiated beforehand into white adipocytes): does not allow expression of the UCP-1 gene

CCCc1c(OCCCOc2ccc(OCC(=O)O)cc2)ccc(C(C)=O)c1O [L165041]
expression of the UCP1 protein [4]: not inducing the expression of the UCP1 protein

Cc1cccc(Nc2cc(Cl)nc(SCC(=O)O)n2)c1C [Wy14643]
expression of the UCP1 protein [4]: not inducing the expression of the UCP1 protein

CCCCC/C=C\C/C=C\C/C=C\C/C=C\CCCC(=O)O [arachidonic acid]
UCP1 gene expression [4]: no effect

CC/C=C\C/C=C\C/C=C\C/C=C\C/C=C\C/C=C\CCC(=O)O [docosahexaenoic acid]
UCP1 gene expression [4]: no effect

CC/C=C\C/C=C\C/C=C\C/C=C\C/C=C\CCCC(=O)O [eicosapentaenoic acid]
UCP1 gene expression [4]: no effect

CC(C)NCC(O)c1ccc(O)c(O)c1 (stereo not shown) [isoproterenol]
stimulation of oxygen consumption (hMADS-2 cells [5]; 1 μM, cells with brown phenotype): important stimulation
expression of UCP1 mRNA and UCP1 protein (hMADS-2 cells [2]): significantly increased

CN(CCOc1ccc(CC2SC(=O)NC2=O)cc1)c1ccccn1 (stereo not shown) [rosiglitazone]
increase factor of total respiratory activity (hMADS-2 cells [5]; [7]): 3
increase factor of uncoupled respiratory activity (hMADS-2 cells [5]; [7]): 2.5
ratio of Bcl-2 to Bax (hMADS-2 cells [6]): 3.7

B1: BMP7: Bone Morphogentic Protein 7 (BMP7) (protein, UniProt P18075 293-431, looked up)
Bone morphogenetic protein 7: STGSKQRSQNRSKTPKNQEALRMANVAENSSSDQRQACKKHELYVSFRDLGWQDWIIAPEGYAAYYCEGECAFPLNSYMNATNHAIVQTLVHFINPETVPKPCCAPTQLNAISVLYFDDSSNVILKKYRNMVVRACGCH
differentiation of hMADS cells into adipocytes (hMADS-2 cells [3]; BMP7 alone, in the absence of rosiglitazone): does not enable their differentiation into adipocytes
UCP-1 protein expression ([4]; cells differentiated beforehand into white adipocytes): weak increase

Source: patent US9790469B2, “Established human brown adipocyte line and method for differentiation from an hMADS cell line” (CENTRE NATIONAL DE LA RECHERCHE SCIENTIFIQUE (CNRS), priority 2008, dated 2017)
